From patent publication US8609656B2, “Heteroarylphenylurea derivative” (Chugai Seiyaku Kabushiki Kaisha, priority 2004, dated 2013)
≈ marks a conversion by molar mass, not a printed value.

Tests used:
[1] = system: human colorectal cancer cell strain HCT 116; assay: Antitumor test, HCT 116 inoculated subcutaneously in nude mouse; format: in vivo, male Balb/c nude mouse; details: dosage 200 mg/kg, orally one time a day for 5 days, final administration day
Experimental: (§1) With respect to the compounds relating to the present invention and the known compound (BAY 43-9006), cell growth inhibition activity was measured.
(§2) A cell suspension of a human colorectal cancer cell strain HCT 116 was prepared with a Hunks' balanced salt solution. Its 5.0×10^6 were inoculated subcutaneously to the flank of each male Balb/c nude mouse. When the mean volume of a tumor reached 200 to 250 mm^3, a sample compound was orally administered one time a day for 5 days. The tumor volume was calculated from the calculation formula: 0.5×(minor diameter)^2×(major diameter), and the tumor growth inhibition ratio was calculated from the ratio of the tumor growth of the sample administered group to that of a reference group. The dosage in the antitumor test, the tumor growth inhibition ratio on the final administration day and the reduction in body weight on day 7 after starting administration are shown in Tables 6-1 and 6-2

[2] = system: VEGF non-dependent human umbilical vein endothelial cells (HUVEC); assay: Cell growth inhibition test, VEGF non-dependent HUVEC; format: cell-based; details: 72 hours, WST-1, read-out: HUVEC (VEGF Nondependence), 50% Growth Inhibition Concentration (IC50 value)
Experimental: (§3) Cell Growth Inhibition Test
as §1
(§4) A sample compound was in-series diluted with dimethyl sulfoxide, and then was 1/50 diluted with a Ca^2+- and Mg^2+-free phosphate-bufferized physiological saline and its 20 μL was poured to a 96-well plate. […] Each of these cell suspensions was dividedly poured to the sample added plate in 180 μL/well and cultured in a 5% carbon dioxide incubator at 37° C. After 72 hours, 20 μL of WST-(HCT 116, a product of Dojin) or WST-1 (HUVEC, a product of Roche diagnostics) was added thereto to each well and the absorbance at 450 nm (reference wavelength: 650 nm) was measured. From the growth inhibition ratio of addition of the sample compound to no-addition of the sample compound as a reference, the 50% growth inhibition IC50) of the sample compound was calculated.
(§5) With respect to the group of representative compounds of the present invention, the IC50 values of HCT 116 and HUVEC (VEGF nondependent growth and VEGF dependent growth) are shown in Tables 5-1 to 5-3.

[3] = system: VEGF dependent HUVEC; assay: Cell growth inhibition test, VEGF dependent HUVEC; format: cell-based; details: Homo sapiens, 20 ng/mL of VEGF, 72 hours, WST-1, read-out: HUVEC (VEGF Dependence), 50% Growth Inhibition Concentration (IC50 value)
Experimental: as §3, §1, §4, §5

[4] = system: human colorectal cancer cell strain HCT 116; assay: Cell growth inhibition test, HCT 116; format: cell-based; details: 72 hours, read-out: HCT116, 50% Growth Inhibition Concentration (IC50 value)
Experimental: as §3, §1, §4, §5

[5] = target: T1, recombinant Raf-1 protein (activated type GST-Raf-1) (Homo sapiens, UniProt P04049); assay: RAF-1 enzyme inhibition test (33P incorporation into MEK 1 protein); format: biochemical; details: 10 μM ATP, GST-MEK1 substrate, 30° C., 45 minutes; read-out: Raf-1 Enzyme Inhibition, 50% Enzyme Inhibition Concentration (IC50 value)
T1 construct: fused on or other part: GST tag fused to Raf-1
T1 sequence (P04049 349-648 limits assumed): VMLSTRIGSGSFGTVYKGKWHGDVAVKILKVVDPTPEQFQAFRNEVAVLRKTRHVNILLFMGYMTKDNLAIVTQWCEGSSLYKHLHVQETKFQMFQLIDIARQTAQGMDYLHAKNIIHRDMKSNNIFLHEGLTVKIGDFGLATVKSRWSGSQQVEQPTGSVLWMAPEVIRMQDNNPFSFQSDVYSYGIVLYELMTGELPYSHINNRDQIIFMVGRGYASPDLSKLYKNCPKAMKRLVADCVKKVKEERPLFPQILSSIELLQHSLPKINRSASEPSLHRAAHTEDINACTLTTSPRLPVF
Method in brief: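 GST-MEK1 (2 μg) was phosphorylated by activated GST-Raf-1 (25 ng) with 10 μM ATP spiked with 33P-ATP, in Tris-HCl pH 7.5 with DTT, NaCl, KF, vanadate and 10 mM MgCl2, for 45 min at 30° C. Protein was precipitated with TCA and radioactivity counted on filters. IC50 was calculated from inhibition relative to a compound-free reference.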

[6] = Solubility to fasted state simulated intestinal fluid; format: physicochemical; details: fassif, kinetic from dmso stock, fasted state simulated intestinal fluid (pH 6.5), 37° C.
Method in brief: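 DMSO stock of compound added to FaSSIF (pH 6.5; taurocholate, phosphatidylcholine, KH2PO4, KCl) and shaken 20 h at 37° C. Filtrate diluted with ethanol:water 2:1 and read by UV absorbance; solubility taken as sample-to-standard absorbance ratio (blank-corrected) × 165 μM standard.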

[7] = Antitumor test, reduction in body weight; format: in vivo, male Balb/c nude mouse; details: dosage 200 mg/kg, orally one time a day for 5 days, day 7 after starting administration
Experimental: as §2

IC50 [4] | IC50 [5] | solubility at 20 h [6] | SMILES | Tumor Inhibition Ratio (%) [1] | IC50 [2] | IC50 [3] | Body Weight Reduction ratio (%) [7]
3700 nM | 13 nM | 39 µg/mL (≈ 73.2 µM) | CCCNC(=O)Nc1ncnc2c1ncn2-c1ccc(NC(=O)Nc2ccc(Cl)c(C(F)(F)F)c2)cc1 [Table 1, Compound 119, 1-(9-{4-[3-(4-Chloro-3-(tri-fluoromethyl)phenyl)ureido]-phenyl}-9H-purin-6-yl)-3-propylurea] | 89% | 970 nM | 64 nM | 8.5%
1700 nM | 110 nM | 158 µg/mL (≈ 293 µM) | CNc1ncnc2c1ncn2-c1ccc(NC(=O)Nc2cc(CN3CCN(C)CC3)cc(C(F)(F)F)c2)cc1 [Table 2, Compound 25, 1-[4-(6-(Methylamino)purin-9-yl)phenyl]-3-[3-(4-methyl-piperazin-1-ylmethyl)-5-(tri-fluoromethyl)phenyl]urea] | 80% | 1700 nM | 280 nM | 2.7%
